What follows are compounds tested against T1, KRAS G12C 1-169, his-tagged protein, GDP-loaded (Homo sapiens, UniProt P01116, G12C) (assay: Biochemical assay: covalent binding to KRAS G12C analyzed by mass spectrometry). Settings: compounds 1-47, measured at 24 h.
T1 construct: KRAS G12C 1-169, his-tagged protein, GDP-loaded
Further: test concentration or dose not given here.

T1 sequence (P01116 1-169 isoform P01116-2 G12C): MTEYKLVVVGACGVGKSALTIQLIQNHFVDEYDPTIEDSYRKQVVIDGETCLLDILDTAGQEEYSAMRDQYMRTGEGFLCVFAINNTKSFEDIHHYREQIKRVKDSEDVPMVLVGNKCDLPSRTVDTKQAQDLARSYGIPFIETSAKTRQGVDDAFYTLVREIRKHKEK

| Structure (SMILES) | Binding % |
| --- | --- |
| C=CC(=O)N1CCN(c2ncnc3cc(F)c(-c4ccccc4Cl)cc23)CC1 [Compound I-33, 1-(4-(6-(2-chlorophenyl)-7-fluoroquinazolin-4-yl)piperazin-1-yl)prop-2-en-1-one] | ++ (++indicates binding activity greater than 25% and up to 50%) |
| C=CC(=O)N1CCN(c2ncnc3cc(Cl)c(-c4cccc(C#N)c4)cc23)CC1 [Compound I-19, 3-(4-(4-acryloylpiperazin-1-yl)-7-chloroquinazolin-6-yl)benzonitrile] | ++ (++indicates binding activity greater than 25% and up to 50%) |

Same assay, conditions: compounds 48-246, measured at 2 h

| Structure (SMILES) | Binding % |
| --- | --- |
| C=CC(=O)N1CCN(c2ncnc3cc(-c4cc(F)ccc4O)c(Cl)cc23)CC1 [Compound I-122, 1-(4-(6-chloro-7-(5-fluoro-2-hydroxyphenyl)quinazolin-4-yl)piperazin-1-yl)prop-2-en-1-one] | ++ (++indicates binding activity greater than 25% and up to 50%) |
| C=CC(=O)N1CCN(c2ncnc3cc(-c4cccc5c4CCCC5)c(Cl)cc23)CC1 [Compound I-148, 1-(4-(6-chloro-7-(5,6,7,8-tetrahydronaphthalen-1-yl)quinazolin-4-yl)piperazin-1-yl)prop-2-en-1-one] | +++ (+++indicates binding activity greater than 50% and up to 75%) |
| C=CC(=O)N1CCN(c2ncnc3cc(Cl)c(-c4ccc(Cl)cc4)cc23)CC1CCO (stereo not shown) [Compound I-62, 1-(4-(7-chloro-6-(4-chlorophenyl)quinazolin-4-yl)-2-(2-hydroxyethyl)piperazin-1-yl)prop-2-en-1-one] | + (+indicates binding activity from 5% to 25%) |
| C=CC(=O)N1CCN(c2ncnc3cc(-c4cccc5c4OCCO5)c(Cl)cc23)CC1 [Compound I-201, 1-(4-(6-chloro-7-(2,3-dihydrobenzo[d][1,4]dioxol-5-yl)quinazolin-4-yl)piperazin-1-yl)prop-2-en-1-one] | +++ (+++indicates binding activity greater than 50% and up to 75%) |
| C=CC(=O)N1CCN(c2ncnc3cc(-c4cc(OC(F)(F)F)ccc4F)c(Cl)cc23)CC1 [Compound I-141, 1-(4-(6-chloro-7-(2-fluoro-5-(trifluoromethoxy)phenyl)quinazolin-4-yl)piperazin-1-yl)prop-2-en-1-one] | + (+indicates binding activity from 5% to 25%) |
| C=CC(=O)N1CCN(c2ncnc3cc(-c4cccc(CC)c4)c(Cl)cc23)CC1 [Compound I-79, 1-(4-(6-chloro-7-(3-ethylphenyl)quinazolin-4-yl)piperazin-1-yl)prop-2-en-1-one] | + (+indicates binding activity from 5% to 25%) |
| C=CC(=O)N1CCN(c2cnnc3cc(-c4ccccc4C(F)(F)F)c(Cl)cc23)CC1 [Compound I-225, 1-(4-(6-chloro-7-(2-(trifluoromethyl)phenyl)cinnolin-4-yl)piperazin-1-yl)prop-2-en-1-one] | ++ (++indicates binding activity greater than 25% and up to 50%) |
| C=CC(=O)N1CCN(c2ncnc3cc(-c4cccc5cncnc45)c(Cl)cc23)CC1 [Compound I-180, 1-(4-(6-chloro-7,8′-biquinazolin-4-yl)piperazin-1-yl)prop-2-en-1-one] | + (+indicates binding activity from 5% to 25%) |
| C=CC(=O)N1CCN(c2ncnc3cc(-c4cc(C5(C#N)CC5)ccc4F)c(Cl)cc23)CC1 [Compound I-143, 1-(3-(4-(4-acryloylpiperazin-1-yl)-6-chloroquinazolin-7-yl)-4-fluorophenyl)cyclopropanecarbonitrile] | +++ (+++indicates binding activity greater than 50% and up to 75%) |
| C=CC(=O)N1CCN(c2ncnc3cc(-n4ccc(Cl)cc4=O)c(Cl)cc23)CC1 [Compound I-181, 1-(4-(4-acryloylpiperazin-1-yl)-6-chloroquinazolin-7-yl)-4-chloropyridin-2(1H)-one] | + (+indicates binding activity from 5% to 25%) |
| C=CC(=O)N1CCN(c2ncnc3cc(-c4ccccc4)c(C4CC4)cc23)CC1 [Compound I-86, 1-(4-(6-cyclopropyl-7-phenylquinazolin-4-yl)piperazin-1-yl)prop-2-en-1-one] | + (+indicates binding activity from 5% to 25%) |
| C=CC(=O)N1CCN(c2nc(C)nc3cc(Cl)c(-c4ccc(Cl)cc4)cc23)CC1C#N (stereo not shown) [Compound I-56, 1-acryloyl-4-(7-chloro-6-(4-chlorophenyl)-2-methylquinazolin-4-yl)piperazine-2-carbonitrile] | ++++ (++++indicates binding activity greater than 75%) |
| C=CC(=O)N1CCN(c2ccnc3cc(-c4ccccc4)c(Cl)cc23)CC1 [Compound I-91, 1-(4-(6-chloro-7-phenylquinolin-4-yl)piperazin-1-yl)prop-2-en-1-one] | ++ (++indicates binding activity greater than 25% and up to 50%) |
| C=CC(=O)N1CCN(c2ncnc3cc(-c4ccc(Cl)cc4Cl)c(Cl)cc23)CC1 [Compound I-102, 1-(4-(6-chloro-7-(2,4-dichlorophenyl)quinazolin-4-yl)piperazin-1-yl)prop-2-en-1-one] | +++ (+++indicates binding activity greater than 50% and up to 75%) |
| C=CC(=O)N1CCN(c2ncnc3cc(-c4cc(F)ccc4C(N)=O)c(Cl)cc23)CC1 [Compound I-197, 2-(4-(4-acryloylpiperazin-1-yl)-6-chloroquinazolin-7-yl)-4-fluorobenzamide] | ++ (++indicates binding activity greater than 25% and up to 50%) |

Same assay, conditions: compounds 247-342, measured at 30 min

| Structure (SMILES) | Binding % |
| --- | --- |
| C=CC(=O)N1CCN(c2c(C#N)cnc3c(F)c(-c4c(C)ccc5[nH]ncc45)c(Cl)cc23)CC1C (stereo not shown) [Compound 336, 4-(4-acryloyl-3-methylpiperazin-1-yl)-6-chloro-8-fluoro-7-(5-methyl-1H-indazol-4-yl)quinoline-3-carbonitrile] | +++ (+++indicates binding activity greater than 50% and up to 75%) |
| C=CC(=O)N1CCN(c2nc(N(C)C)nc3c(F)c(-c4c(C)ccc5[nH]ncc45)c(Cl)cc23)CC1 [Compound 338, 1-(4-(6-chloro-2-(dimethylamino)-8-fluoro-7-(5-methyl-1H-indazol-4-yl)quinazolin-4-yl)piperazin-1-yl)prop-2-en-1-one] | ++ (++indicates binding activity greater than 25% and up to 50%) |
| C=CC(=O)N1CCN(c2nc(OC3CCCOC3)nc3cc(-c4c(C)ccc5[nH]ncc45)c(Cl)cc23)CC1 (stereo not shown) [Compound 316, 1-(4-(6-chloro-7-(5-methyl-1H-indazol-4-yl)-2-(tetrahydro-2H-pyran-3-yloxy)quinazolin-4-yl)piperazin-1-yl)prop-2-en-1-one] | ++ (++indicates binding activity greater than 25% and up to 50%) |
| C=CC(=O)N1CCN(c2nc(OCCCN(C)C)nc3c(F)c(-c4c(C)ccc5[nH]ncc45)c(Cl)cc23)CC1 [Compound 339, 1-(4-(6-chloro-2-(3-(dimethylamino)propoxy)-8-fluoro-7-(5-methyl-1H-indazol-4-yl)quinazolin-4-yl)piperazin-1-yl)prop-2-en-1-one] | ++++ (++++indicates binding activity greater than 75%) |
| C=CC(=O)N1CCN(c2ncnc3cc(-c4cc(Cl)cc5cn[nH]c45)c(Cl)cc23)CC1 [Compound I-264, 1-(4-(6-chloro-7-(5-chloro-1H-indazol-7-yl)quinazolin-4-yl)piperazin-1-yl)prop-2-en-1-one] | ++ (++indicates binding activity greater than 25% and up to 50%) |
| C=CC(=O)N1CCN(c2ncnc3cc(-c4c(Cl)ccc5[nH]ncc45)c(Cl)cc23)CC1 [Compound I-266, 1-(4-(6-chloro-7-(5-chloro-1H-indazol-4-yl)quinazolin-4-yl)piperazin-1-yl)prop-2-en-1-one] | +++ (+++indicates binding activity greater than 50% and up to 75%) |
| C=CC(=O)N1CCN(c2c(C#N)cnc3c(F)c(-c4ccccc4C(F)(F)F)c(Cl)cc23)CC1 [Compound I-285, 4-(4-acryloylpiperazin-1-yl)-6-chloro-8-fluoro-7-(2-(trifluoromethyl)phenyl) quinoline-3-carbonitrile] | +++ (+++indicates binding activity greater than 50% and up to 75%) |
| CC(C)(/C=C(\C#N)C(=O)N1CCN(c2ncnc3cc(-c4ccccc4F)c(Cl)cc23)CC1)CO [Compound I-261, (E)-2-(4-(6-chloro-7-(2-fluorophenyl)quinazolin-4-yl)piperazine-1-carbonyl)-5-hydroxy-4,4-dimethylpent-2-enenitrile] | + (+indicates binding activity from 5% to 25%) |

Same assay, conditions: determined at 2 hrs

| Structure (SMILES) | Binding % |
| --- | --- |
| C=CC(=O)N1CC(N2CCN(C(=O)CNc3cc(C4CC4)c(Cl)cc3O)C[C@H]2CO)C1 [II-63, (S)-1-(3-(4-(2-(4-chloro-5-cyclopropyl-2-hydroxyphenyl-amino)acetyl)-2-(hydroxymethyl)-piperazin-1-yl)azetidin-1-yl)prop-2-en-1-one] | ++ (++indicates binding activity greater than 20%) |
| C=CC(=O)N1CC(N2CCN(C(=O)CNc3cc(C4CCC4)c(Cl)cc3O)CC2)C1 [II-53, 1-(3-(4-(2-(4-chloro-5-cyclobutyl-2-hydroxyphenylamino)acetyl)piperazin-1-yl)azetidin-1-yl)prop-2-en-1-one] | ++ (++indicates binding activity greater than 20%) |

Same assay, conditions: determined at 24 hrs

| Structure (SMILES) | Binding % |
| --- | --- |
| C=CC(=O)N1CC(N2CCN(C(=O)CNc3cc(Cl)c(Cl)cc3C(N)=O)CC2)C1 [II-10, 2-(2-(4-(1-acryloylazetidin-3-yl)piperazin-1-yl)-2-oxoethylamino)-4,5-dichlorobenzamide] | + (+indicates binding activity from 5% to 15%) |
| C=CC(=O)N1CC(N2CCN(C(=O)CNc3cc(S(C)(=O)=O)ccc3O)CC2)C1 [II-34, 1-(3-(4-(2-(2-hydroxy-5-(methylsulfonyl)-phenylamino)acetyl)-piperazin-1-yl)azetidin-1-yl)prop-2-en-1-one] | + (+indicates binding activity from 5% to 15%) |
| C=CC(=O)N1CC(N2CCN(C(=O)Cc3cccc4ccccc34)CC2)C1 [II-24, 1-(3-(4-(2-(naphthalen-1-yl)acetyl)piperazin-1-yl)azetidin-1-yl)prop-2-en-1-one] | + (+indicates binding activity from 5% to 15%) |
| C=CC(=O)N1CC(N2CCN(C(=O)CNc3cc(C=O)c(Cl)cc3OC)CC2)C1 [II-46, 5-(2-(4-(1-acryloylazetidin-3-yl)piperazin-1-yl)-2-oxoethylamino)-2-chloro-4-methoxybenzaldehyde] | + (+indicates binding activity from 5% to 15%) |

Reference: patent publication US10111874B2, “Combination therapies for treatment of cancer” (Araxes Pharma LLC, priority 2014, dated 2018)
